According to patent publication US20070117770A1, “Human ribosomal DNA (rDNA) and ribosomal RNA (rRNA) nucleic acids and uses thereof” (Cylene Pharmaceuticals, Inc., priority 2005, published 2007):
*1 amine or outer side, *2 acyl side, *3 side chain or, on linkers, in order; H or OH if unused. Where a SMILES comes first, the peptide text is derived from it. Bridges are numbered along the chain shown (N, C = ends). Roman numbers before positions name the chains, in order. [ ]: non-standard residue; d: D form. Actinocin(9to1) = Cc1c2oc3c(C)ccc(C(=O)[*:1])c3nc-2c(C(=O)[*:2])c(N)c1=O; NMeV = CN[C@H](C(=O)O)C(C)C; Sar = CNCC(=O)O

Assays:
[1] = test system: 28S and 18S rRNA (total RNA from HCT116 cells); experiment: Competition for rRNA binding with compound A-1 (agarose gel electrophoresis); parameters: species or system human; details: 10 uM compound A-1; increasing amount of competitor (Actinomycin D 10, 100, 200 uM; pUC18 0.25-4 ug)
Method: Compounds that bound to the 28S rRNA were subjected to competition for rRNA binding with Actinomycin D, Se2SAP (FIG. 3A of US20040110820 published on Jun. 10, 2004) and double-stranded DNA (dsDNA) in confirmatory studies. In such assays, 1 ug of total RNA from HCT116 cells was incubated with 10 uM compound A-1 in a volume of 10 uL in the absence/ presence of (a) increasing amount of Actinomycin D (10, 100 and 200 uM) for 15 min at room temperature, (b) increasing amount of Se2SAP (see figure) for 30 min at room temperature, or (c) increasing amount of pUC18 (0.25, 0.5, 1, 2 and 4 ug) for 30 min at room temperature, followed by agarose gel electrophoresis.

[2] = molecular target: T1, nucleolin/nucleic acid ligand (Homo sapiens, UniProt P19338); experiment: EMSA, interference with nucleolin/nucleic acid ligand interactions (ligands derived from human ribosomal DNA); type: binding
T1 construct: without the N-terminal acidic stretches domain
Method: The following assays assessed effects of compounds on interactions between nucleolin and nucleic acid ligands capable of forming quadruplex (QP) and hairpin (HP) secondary structures. Nucleic acid ligands tested were a cMyc QP DNA having nucleotide sequence 5′-[…]-3′ (SEQ ID NO: 176) and a HP pre-rRNA region to which nucleolin binds, having the sequence 5′-[…]-3′ (SEQ ID NO: 177). In the assays, recombinant nucleolin (˜250 nM), which was fused to maltose binding protein and had the sequence under accession number NM_005381 without the N-terminal acidic stretches domain, was incubated with each of the two ^32P-labeled nucleic acid ligands (10 or 250 nM). Nucleolin and the nucleic acid ligand were incubated in the presence or absence of a test compound of Formula A-1, B-1, C-6 or C-7 in an incubation buffer (12.5 mM Tris, pH 7.6, 60 mM KCl, 1 mM MgCl2, 0.1 mM EDTA, 1 mM DTT, 5% glycerol, 0.1 mg/ml BSA) for 30 minutes at room temperature. Structures for A-1 and B-1 are shown above and structures for C-6 and C-7 are shown hereafter: [drawing 17] The resulting complexes were separated on a 6% DNA retardation gel using 0.5× TBE with 20 mM KCl as a running buffer (i.e., electrophoresis mobility shift assay (EMSA)).
The assay also was conducted using nucleic acid ligands derived from human ribosomal DNA. Sequences of these nucleic acids are shown in the preceding example. […]

T1 sequence (P19338 284-710 limits assumed): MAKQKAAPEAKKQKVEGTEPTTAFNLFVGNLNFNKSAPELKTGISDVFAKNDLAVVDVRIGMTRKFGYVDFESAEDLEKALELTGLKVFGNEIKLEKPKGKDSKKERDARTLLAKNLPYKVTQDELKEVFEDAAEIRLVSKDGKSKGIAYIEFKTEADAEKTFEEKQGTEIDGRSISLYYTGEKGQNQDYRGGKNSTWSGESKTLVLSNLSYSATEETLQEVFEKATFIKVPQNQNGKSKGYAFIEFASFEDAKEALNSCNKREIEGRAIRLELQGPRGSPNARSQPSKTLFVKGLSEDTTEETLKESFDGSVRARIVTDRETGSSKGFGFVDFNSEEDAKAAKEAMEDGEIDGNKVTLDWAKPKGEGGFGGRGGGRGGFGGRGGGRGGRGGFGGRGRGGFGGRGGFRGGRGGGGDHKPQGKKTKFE

## Cc1c2oc3c(C)ccc(C(=O)N[C@@H]4C(=O)N[C@H](C(C)C)C(=O)N5CCC[C@H]5C(=O)N(C)CC(=O)N(C)[C@@H](C(C)C)C(=O)O[C@@H]4C)c3nc-2c(C(=O)N[C@@H]2C(=O)N[C@H](C(C)C)C(=O)N3CCC[C@H]3C(=O)N(C)CC(=O)N(C)[C@@H](C(C)C)C(=O)O[C@@H]2C)c(N)c1=O [Actinomycin D, reference compound] (I: T[dV]P[Sar][NMeV] / II: T[dV]P[Sar][NMeV]; ester I:1-I:C, II:1-II:C; linker I:N-II:N via Actinocin(9to1))
[1]
  competition with compound A-1 for rRNA binding: failed to compete with compound A-1 for rRNA
[2]
  interference with nucleolin/nucleic acid ligand interactions: but not Actinomycin D, interfered with nucleolin/nucleic acid ligand interactions
